Assay results taken from patent publication US12076399B2, “Combination therapies for treating cancers” (Cothera Bioscience, Inc., priority 2017, dated 2024).

Tests used:
Assay in all cases: Ex vivo drug sensitivity test (EdU proliferation, EpCAM+ cells, high-content imaging) on conditionally reprogrammed patient-derived tumor cells
Format in all cases: cell-based, human
[1] = test system: patient-derived epithelial tumor cells, colon; conditions: EpCAM and Edu positive readout, AUC concentration
Description: (§1) Surgical specimen from colorectal cancer patients, liver cancer patients, lung cancer patients, pancreatic cancer, gastric cancer patients and breast cancer patients were obtained from the Beijing Cancer Hospital and the Cancer Hospital of Chinese Academy of Medical Science after receiving patient consensus. Patient-derived xenograft tumor specimens were obtained from Nod/SCID mice inoculated with surgical tumor specimen from patients.
(§2) For ex vivo drug sensitivity assays, the tumor cells were isolated from the patient tissue sample or PDX xenograft tumor tissue. Briefly, the tumor tissues were cut into small pieces less than 1 mm in diameter using scissors. The tumor fragments were transferred into a sterile 100-ml triangle glass flask loaded with a magnet stir bar. A 10-15 ml digestion media containing 0.25 U/ml Liberase DH was added into the minced tumor tissues to start enzyme digestion. The enzyme mixture was incubated at 37° C. for 1-2 hours with moderate stirring. The digested tumor tissue was filtered through a 100-μm cell retainer. The filtrates were re-filtered through a 40-μm cell restrainer. The tumor cell clusters retained on the 40-μm cell restrainer was collected, wash twice with HBSS, then re-suspended in a defined growth media supplemented with several stem cell growth factors.
(§3) The tumor cell clusters retained on the 40-μm cell restrainer were collected, wash twice with HBSS, then re-suspended in a defined growth media supplemented with cell growth factors and small molecule inhibitors. The tumor cell clusters were recovered in a defined growth medium overnight. The defined growth medium was StemPro® hESC SFM (defined, serum- and feeder-free medium (SFM)) supplemented with: Nicotinamide, Wnt3A, Noggin (Bone Morphogenetic Protein (BMP) inhibitor), R-spondin-1 (Wnt/β-catenin signaling agonist), and Y27632 (Rho-associated, coiled-coil containing protein kinase (ROCK-1) inhibitor).
(§4) For conditional reprogramming, the recovered CTOSs were dissociated into single cells and seeded in a feeder cell/Rock inhibitor (Y27632) co-culture system at about 3000 cells per well in cell culture plate, and grow at 37 C for 3 days.
(§5) For ex vivo drug testing, the seeded tumor cells were exposed to seven EGFR inhibitors, three MEK 1/2 inhibitors, and three CDK 4/6 inhibitors alone, or a combination of EGFR inhibitor and MEK 1/2 inhibitor, a combination of EGFR inhibitor and CDK 4/6 inhibitor, a combination of MEK 1/2 inhibitor and CDK 4/6 inhibitor, and a triple combination of EGFR inhibitor, MEK 1/2 inhibitor, and a CDK 4/6 inhibitor for 72 hours. The treated tumor cells were re-exposed to the same drug or drug combination with a fresh media change for another 72 hours. All drugs were prepared in DMSO and the final concentration of DMSO in media was 0.1%. The tested concentration of the drug and drug combinations were at relevant AUC concentration (see Table E1).
(§6) Following exposure with drug, the epithelial tumor cells were labeled with 5-ethynyl-2′-deoxyuridine (Edu) to assess the tumor cell proliferation rates. The labeling lasted 24 hours in the presence of drug exposure. In the control group, epithelial tumor cells received no drug exposure with media change, but were similarly labeled with Edu. The labeled tumor cell were fixed and stained with Hoechst 33342 in blocking buffer containing 0.5% Triton X-100 and 3% BSA overnight at 4° C. The tumor cells were incubated with EpCAM antibody (1:4000) for 2 hours at room temperature and rinsed with PBST. Subsequently, the tumor cells were incubated with Alexa FluorR 647 conjugated goat-anti-mouse secondary antibody for 30 minutes at room temperature and rinsed with PBST.
(§7) The incorporated Edu was detected by Click-iT reaction where fixed cells were incubated with a reaction mixture containing 1× Click-iT Edu reaction buffer, CuSO4, and azide-conjugated Alexa Fluor dye in the dark. The stained cells were washed with PBS two times before image acquisition and analysis. […]

[2] = test system: patient-derived epithelial tumor cells, gastric; conditions: EpCAM and Edu positive readout, AUC concentration
Description: as §1, §2, §3, §4, §5, §6, §7

[3] = test system: patient-derived epithelial tumor cells, pancrea; conditions: patient ZKB-011, pancrea; EpCAM and Edu positive readout; AUC concentration
Description: as §1, §2, §3, §4, §5, §6, §7

SMILES	Inhibition percentage ([1]; patient NYL-040, colon)	MI (Maximum Inhibition Index) ([1]; patient NYL-040, colon)	Inhibition percentage ([1]; patient NYL-053, colon)	MI (Maximum Inhibition Index) ([1]; patient NYL-053, colon)	Inhibition percentage ([1]; patient NYL-109, colon)	MI (Maximum Inhibition Index) ([1]; patient NYL-109, colon)	Inhibition percentage ([1]; patient NYL-113, colon)	MI (Maximum Inhibition Index) ([1]; patient NYL-113, colon)	Inhibition percentage ([1]; patient NYL-132, colon)	MI (Maximum Inhibition Index) ([1]; patient NYL-132, colon)	Inhibition percentage ([1]; patient NYL-149, colon)	MI (Maximum Inhibition Index) ([1]; patient NYL-149, colon)	Inhibition percentage ([1]; patient NYL-161, colon)	MI (Maximum Inhibition Index) ([1]; patient NYL-161, colon)	Inhibition percentage ([1]; patient NYL-170, colon)	MI (Maximum Inhibition Index) ([1]; patient NYL-170, colon)	Inhibition percentage ([1]; patient NYL-HZ-002, colon)	MI (Maximum Inhibition Index) ([1]; patient NYL-HZ-002, colon)	Inhibition percentage ([1]; patient ZKB-007, colon)	MI (Maximum Inhibition Index) ([1]; patient ZKB-007, colon)	further results
CC(C)(C)c1nc(-c2cccc(NS(=O)(=O)c3c(F)cccc3F)c2F)c(-c2ccnc(N)n2)s1 [D, Dabrafenib]	7.18%	1.08	9.11%	1.10	34.25%	1.52	−3.84%	0.96	29.59%	1.42	75.06%	4.01	−6.33%	0.94	52.58%	2.11	0.00%	0.83	0.00%	0.91	Inhibition percentage ([1]; patient ZKB-070, colon): 15.53%; MI (Maximum Inhibition Index) ([1]; patient ZKB-070, colon): 1.18; Inhibition percentage ([1]; patient ZKB-171, colon): 15.07%; MI (Maximum Inhibition Index) ([1]; patient ZKB-171, colon): 1.18; Inhibition percentage ([2]; patient NYP-006, gastric): 0.00%; MI (Maximum Inhibition Index) ([2]; patient NYP-006, gastric): 0.47; Inhibition percentage ([2]; patient ZKB-165, gastric): 45.31%; MI (Maximum Inhibition Index) ([2]; patient ZKB-165, gastric): 1.83; Inhibition percentage [3]: 0.00%; MI (Maximum Inhibition Index) [3]: 1.00
CC(=O)c1c(C)c2cnc(Nc3ccc(N4CCNCC4)cn3)nc2n(C2CCCC2)c1=O [P, Palbociclib]	85.02%	6.68	63.04%	2.71	40.42%	1.68	44.25%	1.79	48.53%	1.94	57.40%	2.35	26.16%	1.35	67.64%	3.09	52.48%	2.10	66.72%	3.00	Inhibition percentage ([1]; patient CKY-041, colon): 9.05%; MI (Maximum Inhibition Index) ([1]; patient CKY-041, colon): 1.10; Inhibition percentage ([1]; patient ZKB-070, colon): 77.00%; MI (Maximum Inhibition Index) ([1]; patient ZKB-070, colon): 4.35; Inhibition percentage ([1]; patient ZKB-171, colon): 30.13%; MI (Maximum Inhibition Index) ([1]; patient ZKB-171, colon): 1.43; Inhibition percentage ([2]; patient NYP-006, gastric): 65.36%; MI (Maximum Inhibition Index) ([2]; patient NYP-006, gastric): 2.89; Inhibition percentage ([2]; patient ZKB-165, gastric): 86.45%; MI (Maximum Inhibition Index) ([2]; patient ZKB-165, gastric): 7.38; Inhibition percentage [3]: 85.40%; MI (Maximum Inhibition Index) [3]: 6.85
CC(=O)Nc1cccc(-n2c(=O)n(C3CC3)c(=O)c3c(Nc4ccc(I)cc4F)n(C)c(=O)c(C)c32)c1 [T, Trametinib]	0.00%	0.85	49.02%	1.96	86.79%	7.57	46.31%	1.86	29.60%	1.42	75.78%	4.13	0.59%	1.01	0.00%	0.61	51.53%	2.06	0.00%	0.76	Inhibition percentage ([1]; patient CKY-041, colon): 5.05%; MI (Maximum Inhibition Index) ([1]; patient CKY-041, colon): 1.05; Inhibition percentage ([1]; patient ZKB-070, colon): −34.50%; MI (Maximum Inhibition Index) ([1]; patient ZKB-070, colon): 0.74; Inhibition percentage ([1]; patient ZKB-171, colon): 46.02%; MI (Maximum Inhibition Index) ([1]; patient ZKB-171, colon): 1.85; Inhibition percentage ([2]; patient NYP-006, gastric): 0.00%; MI (Maximum Inhibition Index) ([2]; patient NYP-006, gastric): 0.55; Inhibition percentage ([2]; patient ZKB-165, gastric): 0.00%; MI (Maximum Inhibition Index) ([2]; patient ZKB-165, gastric): 0.60; Inhibition percentage [3]: 7.36%; MI (Maximum Inhibition Index) [3]: 1.08
